Where “and” joins values, the source holds several entries; their conditions need not be identical. Equal entries are not always repeated.
What was measured:
CaMK1 = molecular target: T1, CaMK1 (Homo sapiens, UniProt Q14012); assay: Selectivity panel CaMK1; format: biochemical; conditions: 5 µM inhibitor
T1 construct: purchased Life Technologies (Invitrogen SelectScreen); Dyrk1A, Dyrk2 and CK2α in-house or gifts

PKCβ = molecular target: T2, PKCβ (Homo sapiens, UniProt P05771); assay: Selectivity panel PKCβ; format: biochemical; conditions: 5 µM inhibitor
T2 construct: purchased Life Technologies (Invitrogen SelectScreen); Dyrk1A, Dyrk2 and CK2α in-house or gifts
T2 sequence (P05771 whole entry): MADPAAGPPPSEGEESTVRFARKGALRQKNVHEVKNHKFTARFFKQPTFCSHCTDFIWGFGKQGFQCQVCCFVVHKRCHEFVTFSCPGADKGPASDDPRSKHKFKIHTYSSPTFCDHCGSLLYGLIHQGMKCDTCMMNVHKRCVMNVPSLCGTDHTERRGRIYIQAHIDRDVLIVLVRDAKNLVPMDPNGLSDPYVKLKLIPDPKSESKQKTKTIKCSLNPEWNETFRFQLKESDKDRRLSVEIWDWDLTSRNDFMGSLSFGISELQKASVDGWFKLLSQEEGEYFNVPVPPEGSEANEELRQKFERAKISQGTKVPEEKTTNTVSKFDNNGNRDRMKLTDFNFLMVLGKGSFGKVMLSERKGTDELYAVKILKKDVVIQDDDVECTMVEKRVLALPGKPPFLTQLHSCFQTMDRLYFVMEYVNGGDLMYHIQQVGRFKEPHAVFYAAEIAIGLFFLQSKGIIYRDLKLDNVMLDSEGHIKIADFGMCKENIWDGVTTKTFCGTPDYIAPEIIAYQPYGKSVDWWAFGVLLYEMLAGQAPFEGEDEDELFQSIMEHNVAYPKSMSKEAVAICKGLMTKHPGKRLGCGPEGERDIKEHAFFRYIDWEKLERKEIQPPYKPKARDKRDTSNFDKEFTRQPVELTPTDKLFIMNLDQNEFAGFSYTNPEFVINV

[1] = Metabolic Stability Assay; conditions: male, Sprague-Dawley, rat, liver microsomes
GSK3β = molecular target: T3, GSK3β (Homo sapiens, UniProt P49841); assay: Selectivity panel GSK3β; format: biochemical; conditions: 5 µM inhibitor
T3 construct: purchased Life Technologies (Invitrogen SelectScreen); Dyrk1A, Dyrk2 and CK2α in-house or gifts

MLK1 = molecular target: T4, MLK1 (Homo sapiens, UniProt P80192); assay: Selectivity panel MLK1; format: biochemical; conditions: 5 µM inhibitor
T4 construct: purchased Life Technologies (Invitrogen SelectScreen); Dyrk1A, Dyrk2 and CK2α in-house or gifts
T4 sequence (P80192 whole entry): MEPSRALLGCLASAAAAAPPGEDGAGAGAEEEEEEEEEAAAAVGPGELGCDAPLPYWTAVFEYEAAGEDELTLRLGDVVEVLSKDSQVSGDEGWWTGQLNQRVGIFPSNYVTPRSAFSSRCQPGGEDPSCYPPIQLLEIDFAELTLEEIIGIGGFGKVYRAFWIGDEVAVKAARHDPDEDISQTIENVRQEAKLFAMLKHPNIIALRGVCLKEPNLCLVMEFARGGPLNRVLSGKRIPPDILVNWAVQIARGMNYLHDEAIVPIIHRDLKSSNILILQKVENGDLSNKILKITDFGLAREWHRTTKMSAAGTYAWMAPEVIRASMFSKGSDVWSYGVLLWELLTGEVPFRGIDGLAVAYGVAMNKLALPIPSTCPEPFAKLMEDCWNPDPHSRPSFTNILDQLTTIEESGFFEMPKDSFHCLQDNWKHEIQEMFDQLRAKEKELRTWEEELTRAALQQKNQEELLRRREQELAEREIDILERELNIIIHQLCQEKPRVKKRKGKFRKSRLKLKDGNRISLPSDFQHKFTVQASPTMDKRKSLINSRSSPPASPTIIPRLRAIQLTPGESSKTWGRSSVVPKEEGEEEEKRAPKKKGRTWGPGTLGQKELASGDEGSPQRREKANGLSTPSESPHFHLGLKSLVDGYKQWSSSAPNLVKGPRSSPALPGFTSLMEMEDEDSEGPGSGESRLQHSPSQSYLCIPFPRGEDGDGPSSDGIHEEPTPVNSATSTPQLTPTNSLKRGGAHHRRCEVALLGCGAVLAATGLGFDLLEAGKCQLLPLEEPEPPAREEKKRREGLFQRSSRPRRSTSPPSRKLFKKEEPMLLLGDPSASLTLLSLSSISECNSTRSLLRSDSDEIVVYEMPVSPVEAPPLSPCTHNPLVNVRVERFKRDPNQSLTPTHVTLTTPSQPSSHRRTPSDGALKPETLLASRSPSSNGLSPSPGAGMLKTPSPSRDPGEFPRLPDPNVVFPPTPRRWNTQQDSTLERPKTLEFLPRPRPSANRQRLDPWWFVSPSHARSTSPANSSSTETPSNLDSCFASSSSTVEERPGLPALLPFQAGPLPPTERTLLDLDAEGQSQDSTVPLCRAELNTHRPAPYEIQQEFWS

Ck1δ = molecular target: T5, Ck1δ (Homo sapiens, UniProt P48730); assay: Selectivity panel Ck1δ; format: biochemical; conditions: 5 µM inhibitor
T5 construct: purchased Life Technologies (Invitrogen SelectScreen); Dyrk1A, Dyrk2 and CK2α in-house or gifts

Dyrk2 = molecular target: T6, Dyrk2 (Homo sapiens, UniProt Q92630); assay: Dyrk2 kinase assay (32P-ATP, Woodtide); format: biochemical; conditions: for IC50: 100 µM ATP, read-out: IC50 Dyrk2; for inhibition at 5 µM: read-out: percentage of inhibition Dyrk2
T6 construct: made in house; host or cells: Escherichia coli BL21(DE3) with pRARE; plasmid pGEX-2TK-Dyrk2 (gift from W. Becker, Aachen)
T6 sequence (Q92630 1-601): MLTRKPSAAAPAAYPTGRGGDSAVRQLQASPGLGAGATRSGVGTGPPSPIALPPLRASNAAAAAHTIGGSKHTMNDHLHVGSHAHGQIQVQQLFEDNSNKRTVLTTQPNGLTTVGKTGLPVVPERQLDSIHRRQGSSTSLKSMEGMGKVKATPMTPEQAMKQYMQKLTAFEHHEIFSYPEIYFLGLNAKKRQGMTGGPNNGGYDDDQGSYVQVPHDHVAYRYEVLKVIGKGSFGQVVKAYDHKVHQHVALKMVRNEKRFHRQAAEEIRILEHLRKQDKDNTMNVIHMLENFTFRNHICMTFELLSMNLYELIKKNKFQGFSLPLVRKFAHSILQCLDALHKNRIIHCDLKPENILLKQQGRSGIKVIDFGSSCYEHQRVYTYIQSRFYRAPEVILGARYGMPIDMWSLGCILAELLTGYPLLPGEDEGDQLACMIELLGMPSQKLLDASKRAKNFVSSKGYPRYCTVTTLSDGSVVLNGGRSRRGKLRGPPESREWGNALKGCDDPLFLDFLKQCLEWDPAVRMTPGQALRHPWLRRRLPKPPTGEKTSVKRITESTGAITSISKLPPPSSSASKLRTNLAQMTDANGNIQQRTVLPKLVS

ROS = molecular target: T7, ROS (Homo sapiens, UniProt P08922); assay: Selectivity panel ROS; format: biochemical; conditions: 5 µM inhibitor
T7 construct: purchased Life Technologies (Invitrogen SelectScreen); Dyrk1A, Dyrk2 and CK2α in-house or gifts

Clk3 = molecular target: T8, Clk3 (Homo sapiens, UniProt P49761); assay: Selectivity panel Clk3; format: biochemical; conditions: 5 µM inhibitor
T8 construct: purchased Life Technologies (Invitrogen SelectScreen); Dyrk1A, Dyrk2 and CK2α in-house or gifts
T8 sequence (P49761 whole entry): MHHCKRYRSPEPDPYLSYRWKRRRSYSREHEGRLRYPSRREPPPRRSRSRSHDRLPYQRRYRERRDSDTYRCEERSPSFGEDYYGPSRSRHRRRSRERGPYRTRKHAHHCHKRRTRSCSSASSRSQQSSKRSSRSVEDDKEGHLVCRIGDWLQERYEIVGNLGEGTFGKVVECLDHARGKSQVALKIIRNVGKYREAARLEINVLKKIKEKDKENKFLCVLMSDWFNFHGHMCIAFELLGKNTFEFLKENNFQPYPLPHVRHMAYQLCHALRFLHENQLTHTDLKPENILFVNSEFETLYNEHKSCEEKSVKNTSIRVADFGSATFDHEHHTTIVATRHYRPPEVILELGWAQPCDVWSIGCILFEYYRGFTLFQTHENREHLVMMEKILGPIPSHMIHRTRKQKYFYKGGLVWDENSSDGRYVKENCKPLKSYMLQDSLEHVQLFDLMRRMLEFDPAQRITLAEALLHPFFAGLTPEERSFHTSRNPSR

TrkB = molecular target: T9, TrkB (Homo sapiens, UniProt Q16620); assay: Selectivity panel TrkB; format: biochemical; conditions: 5 µM inhibitor
T9 construct: purchased Life Technologies (Invitrogen SelectScreen); Dyrk1A, Dyrk2 and CK2α in-house or gifts
T9 sequence (Q16620 32-822): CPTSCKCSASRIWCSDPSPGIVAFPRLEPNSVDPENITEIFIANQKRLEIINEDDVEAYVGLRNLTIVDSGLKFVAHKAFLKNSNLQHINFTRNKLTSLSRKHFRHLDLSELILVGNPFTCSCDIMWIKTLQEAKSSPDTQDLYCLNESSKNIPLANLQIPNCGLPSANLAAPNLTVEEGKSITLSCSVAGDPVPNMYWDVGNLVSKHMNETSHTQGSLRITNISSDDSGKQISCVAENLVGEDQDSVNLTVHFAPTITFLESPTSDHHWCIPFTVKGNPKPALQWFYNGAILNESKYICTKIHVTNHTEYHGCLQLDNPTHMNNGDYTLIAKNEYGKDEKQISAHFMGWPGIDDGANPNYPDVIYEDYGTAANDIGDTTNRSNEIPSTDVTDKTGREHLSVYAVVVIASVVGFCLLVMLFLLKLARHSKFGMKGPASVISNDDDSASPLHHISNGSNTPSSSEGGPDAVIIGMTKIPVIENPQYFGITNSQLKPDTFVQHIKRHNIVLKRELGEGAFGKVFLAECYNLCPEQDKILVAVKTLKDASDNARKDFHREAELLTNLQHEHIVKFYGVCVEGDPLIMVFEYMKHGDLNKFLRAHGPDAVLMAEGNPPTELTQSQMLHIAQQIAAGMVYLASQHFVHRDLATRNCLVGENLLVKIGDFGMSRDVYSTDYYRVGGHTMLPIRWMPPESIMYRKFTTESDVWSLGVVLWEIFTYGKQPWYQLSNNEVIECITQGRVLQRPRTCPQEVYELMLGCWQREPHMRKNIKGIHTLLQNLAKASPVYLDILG

EGFR = molecular target: T10, EGFR (Homo sapiens, UniProt P00533); assay: Selectivity panel EGFR; format: biochemical; conditions: 5 µM inhibitor
T10 construct: purchased Life Technologies (Invitrogen SelectScreen); Dyrk1A, Dyrk2 and CK2α in-house or gifts

MST1 (STK4) = molecular target: T11, MST1 (STK4) (Homo sapiens, UniProt Q13043); assay: Selectivity panel MST1; format: biochemical; conditions: 5 µM inhibitor
T11 construct: purchased Life Technologies (Invitrogen SelectScreen); Dyrk1A, Dyrk2 and CK2α in-house or gifts
T11 sequence (Q13043 1-487): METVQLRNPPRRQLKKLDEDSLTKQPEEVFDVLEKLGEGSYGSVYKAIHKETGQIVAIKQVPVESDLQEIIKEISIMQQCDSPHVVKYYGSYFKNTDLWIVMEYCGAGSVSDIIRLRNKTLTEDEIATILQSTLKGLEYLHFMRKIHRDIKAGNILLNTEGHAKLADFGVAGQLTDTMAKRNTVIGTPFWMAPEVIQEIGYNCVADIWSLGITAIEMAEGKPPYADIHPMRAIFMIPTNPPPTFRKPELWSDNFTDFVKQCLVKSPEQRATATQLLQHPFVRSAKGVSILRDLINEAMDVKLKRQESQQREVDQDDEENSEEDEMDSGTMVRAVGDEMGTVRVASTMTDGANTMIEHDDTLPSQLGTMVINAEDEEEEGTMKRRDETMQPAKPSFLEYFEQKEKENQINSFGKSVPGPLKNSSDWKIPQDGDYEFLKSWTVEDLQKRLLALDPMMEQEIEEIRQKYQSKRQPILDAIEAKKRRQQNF

CDK5 = molecular target: T12, CDK5 (Homo sapiens, UniProt Q00535); assay: Selectivity panel CDK5; format: biochemical; conditions: 5 µM inhibitor
T12 construct: purchased Life Technologies (Invitrogen SelectScreen); Dyrk1A, Dyrk2 and CK2α in-house or gifts
T12 sequence (Q00535 whole entry): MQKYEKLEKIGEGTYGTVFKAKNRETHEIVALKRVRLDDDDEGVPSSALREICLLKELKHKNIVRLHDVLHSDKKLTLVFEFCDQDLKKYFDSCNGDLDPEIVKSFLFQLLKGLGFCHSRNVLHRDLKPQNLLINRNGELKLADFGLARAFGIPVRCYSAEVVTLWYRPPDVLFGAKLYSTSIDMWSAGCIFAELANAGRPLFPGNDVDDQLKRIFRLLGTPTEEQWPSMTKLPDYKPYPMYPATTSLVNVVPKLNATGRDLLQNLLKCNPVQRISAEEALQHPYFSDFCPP
T12 sequence (Q15078 whole entry partner): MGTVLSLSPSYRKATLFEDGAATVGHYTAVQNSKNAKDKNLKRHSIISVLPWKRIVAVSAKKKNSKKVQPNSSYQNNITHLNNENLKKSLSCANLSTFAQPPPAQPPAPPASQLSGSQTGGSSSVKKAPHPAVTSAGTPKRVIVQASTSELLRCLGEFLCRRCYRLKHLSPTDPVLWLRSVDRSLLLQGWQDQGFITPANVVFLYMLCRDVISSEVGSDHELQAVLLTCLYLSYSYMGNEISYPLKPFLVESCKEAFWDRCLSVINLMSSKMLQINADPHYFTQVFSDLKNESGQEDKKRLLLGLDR

PIM1 = PIM1 (Homo sapiens, UniProt P11309); assay: Selectivity panel PIM1; format: biochemical; conditions: for inhibition at 5 µM: 5 µM inhibitor
Sequence of PIM1 (P11309 whole entry): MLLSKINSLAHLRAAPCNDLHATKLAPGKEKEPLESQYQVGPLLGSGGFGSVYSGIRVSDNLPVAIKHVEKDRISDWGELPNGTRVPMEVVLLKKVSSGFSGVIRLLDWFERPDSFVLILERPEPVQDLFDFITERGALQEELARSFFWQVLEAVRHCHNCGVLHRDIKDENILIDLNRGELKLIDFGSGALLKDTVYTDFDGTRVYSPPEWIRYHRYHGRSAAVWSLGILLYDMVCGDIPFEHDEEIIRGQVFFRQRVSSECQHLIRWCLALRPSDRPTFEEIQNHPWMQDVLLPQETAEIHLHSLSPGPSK

Dyrk1B = molecular target: T13, Dyrk1B (Homo sapiens, UniProt Q9Y463); assay: Dyrk1B kinase assay (32P-ATP, Woodtide); format: biochemical; conditions: for IC50: 100 µM ATP; for inhibition at 5 µM: read-out: percentage of inhibition Dyrk1B; for Kd: calculated with Cheng-Prussoff equation, KM ATP 59 µM
T13 construct: purchased Life Technologies PV4649 (LOT # 877059G)
T13 sequence (Q9Y463 whole entry): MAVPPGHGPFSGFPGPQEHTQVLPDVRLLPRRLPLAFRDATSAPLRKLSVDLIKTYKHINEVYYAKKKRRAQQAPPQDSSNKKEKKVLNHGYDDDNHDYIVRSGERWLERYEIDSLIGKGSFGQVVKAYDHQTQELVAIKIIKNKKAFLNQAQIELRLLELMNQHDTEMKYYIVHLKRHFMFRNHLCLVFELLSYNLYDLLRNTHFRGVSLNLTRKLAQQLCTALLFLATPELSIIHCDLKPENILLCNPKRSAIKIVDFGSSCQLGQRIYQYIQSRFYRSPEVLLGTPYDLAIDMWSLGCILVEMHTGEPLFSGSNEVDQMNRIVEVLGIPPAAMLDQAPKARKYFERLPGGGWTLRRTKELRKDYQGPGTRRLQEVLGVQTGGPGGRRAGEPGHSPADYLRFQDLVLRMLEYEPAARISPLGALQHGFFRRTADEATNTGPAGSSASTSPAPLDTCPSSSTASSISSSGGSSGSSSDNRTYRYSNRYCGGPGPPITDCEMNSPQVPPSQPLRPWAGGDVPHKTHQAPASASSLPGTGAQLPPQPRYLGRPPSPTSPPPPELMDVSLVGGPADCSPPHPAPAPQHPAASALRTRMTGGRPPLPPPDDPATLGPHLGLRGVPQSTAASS

Dyrk1A = molecular target: T14, Dyrk1A (Homo sapiens, UniProt Q13627); assay: Dyrk1A kinase assay (32P-ATP, Woodtide); format: biochemical; conditions: for IC50: 100 µM ATP; for inhibition at 5 µM: read-out: percentage of inhibition Dyrk1A
T14 construct: encoding the catalytic domain of human Dyrk1A; thrombin cleavage site (N); made in house; host or cells: Escherichia coli BL21(DE3) with pRARE

T1 sequence (Q14012 whole entry): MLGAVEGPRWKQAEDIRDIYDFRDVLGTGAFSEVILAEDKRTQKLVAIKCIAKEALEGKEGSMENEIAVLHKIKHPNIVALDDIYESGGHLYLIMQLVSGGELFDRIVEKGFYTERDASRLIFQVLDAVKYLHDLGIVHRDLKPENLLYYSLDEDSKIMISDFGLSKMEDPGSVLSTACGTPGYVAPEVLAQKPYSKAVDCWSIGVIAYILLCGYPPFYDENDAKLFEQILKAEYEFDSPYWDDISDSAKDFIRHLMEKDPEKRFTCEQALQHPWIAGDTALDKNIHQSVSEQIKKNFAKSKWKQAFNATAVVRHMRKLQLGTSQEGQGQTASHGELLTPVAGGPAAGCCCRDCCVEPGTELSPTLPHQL

| inhibition at 5 µM (CaMK1) [%] | inhibition at 5 µM (PKCβ) [%] | inhibition at 5 µM (GSK3β) [%] | inhibition at 5 µM (MLK1) [%] | inhibition at 5 µM (Ck1δ) [%] | IC50 (Dyrk2) | inhibition at 5 µM (Dyrk2) [%] | inhibition at 5 µM (ROS) [%] | inhibition at 5 µM (Clk3) [%] | inhibition at 5 µM (TrkB) [%] | inhibition at 5 µM (EGFR) [%] | inhibition at 5 µM (MST1 (STK4)) [%] | inhibition at 5 µM (CDK5) [%] | inhibition at 5 µM (PIM1) [%] | IC50 (Dyrk1B) | inhibition at 5 µM (Dyrk1B) [%] | IC50 (PIM1) [nM] | IC50 (Dyrk1A) | SMILES | CLhep predicted at 0.5 µM [1] [mL/min/kg] | half-life at 0.5 µM [1] [min] | also measured |
| --- | --- | --- | --- | --- | --- | --- | --- | --- | --- | --- | --- | --- | --- | --- | --- | --- | --- | --- | --- | --- | --- |
| 17 | -8 | 17 | 16 | -1 | 200 nM and 190 nM | 100 | 4 | 17 | -5 | 5 | -10 | 33 | 52 | 400 nM and 410 nM | 100 | ~5000 |  | Cn1cc(-c2csc(-c3cccnc3)c2)cn1 [Compound 30, 3-[4-(1-methyl-1H-pyrazol-4-yl)thiophen-2-yl]pyridine] | 34 | 53 | Kd (Dyrk1B): 148 nM |
| 12 | -18 | 10 | 0 | 0 | 1340 nM and 1300 nM | 77 | 2 | 5 | 23 | 0 | 0 | 23 | 51 | 1000 nM | 83 | ~5000 | 800 nM and 810 nM | c1cncc(-c2csc(-c3cnco3)c2)c1 [Compound 33, 3-[5-(1,3-oxazol-5-yl)thiophen-3-yl]pyridine] |  |  | inhibition at 5 µM (Dyrk1A): 84% |
| 0 | -7 | 14 | 3 | 0 | 3500 nM and 3400 nM | 57 | 0 | 5 | 22 | 4 | 2 | 14 | 14 | 1800 nM | 70 |  | 900 nM and 880 nM | c1cncc(-c2csc(-c3cncnc3)c2)c1 [Compound 41, 5-[4-(pyridin-3-yl)thiophen-2-yl]pyrimidine] |  |  | inhibition at 5 µM (Dyrk1A): 85% |

| SMILES | inhibition at 5 µM (CaMK1) [%] | inhibition at 5 µM (PKCβ) [%] | inhibition at 5 µM (GSK3β) [%] | inhibition at 5 µM (MLK1) [%] | inhibition at 5 µM (Ck1δ) [%] | IC50 (Dyrk2) | inhibition at 5 µM (Dyrk2) [%] | inhibition at 5 µM (ROS) [%] | inhibition at 5 µM (Clk3) [%] | inhibition at 5 µM (TrkB) [%] | inhibition at 5 µM (EGFR) [%] | inhibition at 5 µM (MST1 (STK4)) [%] | inhibition at 5 µM (CDK5) [%] | inhibition at 5 µM (PIM1) [%] | IC50 (Dyrk1B) | inhibition at 5 µM (Dyrk1B) [%] | IC50 (PIM1) [nM] | IC50 (Dyrk1A) | CLhep predicted at 0.5 µM [1] [mL/min/kg] | half-life at 0.5 µM [1] [min] | also measured |
| --- | --- | --- | --- | --- | --- | --- | --- | --- | --- | --- | --- | --- | --- | --- | --- | --- | --- | --- | --- | --- | --- |
| c1cncc(-c2cc(-c3cncs3)cs2)c1 [Compound 29, 3-[4-(1,3-thiazol-5-yl)thiophen-2-yl]pyridine] | 8 | -7 | 0 | 15 | 0 | 400 nM and 430 nM | 93 | 0 | 12 | 24 | 0 | 0 | 39 | 22 |  |  |  |  | 49 | 27 |  |
| c1cncc(-c2csc(-c3cncs3)c2)c1 [Compound 48, 3-[5-(1,3-thiazol-5-yl)thiophen-3-yl]pyridine] | 5 | 1 | 25 | 17 | 1 | 40 nM | 100 | 0 | 31 | 0 | 15 | 9 | 44 | 51 | 70 nM | 100 | ~5000 | 100 nM | 47 | 31 | Kd (Dyrk1B): 26 nM; inhibition at 5 µM (Dyrk1A): 97%; Kd (Dyrk1A; calculated with Cheng-Prussoff equation, KM ATP 64 µM): 39 nM |

— publication PMC3968014, “Design and Synthesis of a Library of Lead-Like 2,4-Bisheterocyclic Substituted Thiophenes as Selective Dyrk/Clk Inhibitors” (PLoS ONE, 2014)
